Assay results taken from patent US20040006236A1, “Diaminopropionic acid derivatives” (priority 1999, published 2004).

What was measured:
[1] = system: T lymphocyte proliferation (C57BI/6 spleen cells with irradiated BALB/c spleen cells); test: Mixed lymphocyte reaction (MLR), one-way; format: cell-based, mice; conditions: Mus musculus, T-lymphocyte; read-out: MLR IC50
Summary of the method: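 Irradiated BALB/c spleen cells mixed with C57BI/6 spleen cells in RPMI1640/10% heat-inactivated FBS/2-mercaptoethanol, with serial antagonist dilutions; 3 days at 5% CO2. Tritiated thymidine (0.5 μCi/well) added on day 3; incorporation counted by liquid scintillation after a further 6 h.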

[2] = molecular target: T1, LFA-1 binding to immobilized ICAM-1 (Homo sapiens, UniProt P05107+P20701); test: LFA-1/ICAM-1 protein-protein assay (solid-phase ELISA); conditions: read-out: LFA-1/ICAM-1 Protein-Protein Assay IC50
T1 construct: made in house; host or cells: transfected 293 cells (LFA-1)
Summary of the method: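 Human 5dICAM-Ig (ICAM-1 extracellular domain–IgG Fc) coated on plates; membrane-bound LFA-1 from transfected 293 cells (280 ng/mL) added with compound in Mn2+-containing HEPES buffer pH 7.2, 2 h at 37° C. Bound LFA-1 detected via anti-β2 antibody and HRP/TMB at 450 nm; IC50s determined.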

T1 sequence (P20701 26-1170): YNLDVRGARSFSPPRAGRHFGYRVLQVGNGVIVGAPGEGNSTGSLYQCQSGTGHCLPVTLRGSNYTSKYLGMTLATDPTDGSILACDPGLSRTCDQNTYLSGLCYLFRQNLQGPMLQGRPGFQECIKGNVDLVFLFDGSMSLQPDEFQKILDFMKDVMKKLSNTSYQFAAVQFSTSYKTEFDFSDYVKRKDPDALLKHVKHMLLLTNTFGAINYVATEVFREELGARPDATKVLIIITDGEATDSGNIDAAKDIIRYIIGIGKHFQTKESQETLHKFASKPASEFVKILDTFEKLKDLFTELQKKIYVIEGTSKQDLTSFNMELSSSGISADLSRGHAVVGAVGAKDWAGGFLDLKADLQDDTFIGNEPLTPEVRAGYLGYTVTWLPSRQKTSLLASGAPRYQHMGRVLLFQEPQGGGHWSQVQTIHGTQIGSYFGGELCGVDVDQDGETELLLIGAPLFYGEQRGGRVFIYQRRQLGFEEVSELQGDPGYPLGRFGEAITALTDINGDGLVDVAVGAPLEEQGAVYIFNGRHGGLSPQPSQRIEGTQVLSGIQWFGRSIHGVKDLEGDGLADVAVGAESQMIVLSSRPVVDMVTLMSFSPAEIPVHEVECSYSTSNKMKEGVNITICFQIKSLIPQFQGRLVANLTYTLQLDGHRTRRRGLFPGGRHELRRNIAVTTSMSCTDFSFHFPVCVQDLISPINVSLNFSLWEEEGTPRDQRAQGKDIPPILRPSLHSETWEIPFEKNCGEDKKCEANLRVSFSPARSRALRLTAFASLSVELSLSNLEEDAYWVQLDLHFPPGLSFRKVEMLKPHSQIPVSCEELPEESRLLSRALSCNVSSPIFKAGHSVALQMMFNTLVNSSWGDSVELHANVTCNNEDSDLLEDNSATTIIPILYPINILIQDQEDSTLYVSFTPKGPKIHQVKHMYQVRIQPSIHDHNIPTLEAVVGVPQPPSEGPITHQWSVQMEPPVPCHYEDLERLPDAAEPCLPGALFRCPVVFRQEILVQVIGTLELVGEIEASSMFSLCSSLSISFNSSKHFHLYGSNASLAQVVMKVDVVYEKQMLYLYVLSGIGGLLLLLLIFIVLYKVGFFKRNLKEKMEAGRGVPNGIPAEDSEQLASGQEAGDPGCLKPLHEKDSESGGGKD
T1 sequence (P05107 23-769): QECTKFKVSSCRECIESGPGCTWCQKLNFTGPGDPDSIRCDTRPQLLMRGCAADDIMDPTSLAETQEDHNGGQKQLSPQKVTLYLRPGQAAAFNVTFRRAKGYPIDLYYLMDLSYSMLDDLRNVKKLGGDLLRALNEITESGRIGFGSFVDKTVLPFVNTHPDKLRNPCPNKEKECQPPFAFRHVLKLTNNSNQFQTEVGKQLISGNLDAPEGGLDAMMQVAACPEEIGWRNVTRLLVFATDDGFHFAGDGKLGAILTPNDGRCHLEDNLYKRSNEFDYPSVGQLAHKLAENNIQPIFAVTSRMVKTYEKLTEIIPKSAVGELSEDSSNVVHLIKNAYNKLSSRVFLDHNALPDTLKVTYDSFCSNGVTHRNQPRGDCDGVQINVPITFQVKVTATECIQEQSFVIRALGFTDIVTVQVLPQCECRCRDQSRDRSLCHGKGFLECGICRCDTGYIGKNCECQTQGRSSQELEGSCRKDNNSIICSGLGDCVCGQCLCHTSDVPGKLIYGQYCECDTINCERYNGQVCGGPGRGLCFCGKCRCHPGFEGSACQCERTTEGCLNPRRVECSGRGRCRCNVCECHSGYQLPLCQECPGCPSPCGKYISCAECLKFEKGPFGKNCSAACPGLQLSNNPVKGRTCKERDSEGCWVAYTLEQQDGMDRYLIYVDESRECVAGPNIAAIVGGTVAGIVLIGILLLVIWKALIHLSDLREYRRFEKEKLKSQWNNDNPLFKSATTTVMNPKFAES

IC50 [2] [µM] | Structure (SMILES) | IC50 [1] [µM]
0.0034 | O=C(NCc1ccc(C(=O)N[C@@H](CNC(=O)c2ccccc2)C(=O)O)c(Cl)c1)c1cc(O)cc(O)c1 [Example 366] | 1.4
0.011 | O=C(NCc1ccc(C(=O)N[C@@H](CNC(=O)c2ccccc2)C(=O)O)c(Cl)c1)c1ccc2[nH]ccc2c1 [Example 368] | 3.85
0.0085 | O=C(NCc1ccc(C(=O)N[C@@H](CNC(=O)c2ccccc2)C(=O)O)c(Cl)c1)c1ccc2cc[nH]c2c1 [Example 369] | 3.2
0.01 | N=C(N)NC[C@H](NC(=O)c1ccc(C(=O)NCc2cccc(O)c2)cc1Cl)C(=O)O [Example 371, N-[2-chloro-4-[[[(3-hydroxyphenyl)methyl]amino]-carbonyl]benzoyl]-3-(aminoiminomethyl)amino-L-alanine] | 3.5
0.0077 | O=C(NC[C@H](NC(=O)c1ccc(/C=C/Cc2ccccc2)cc1Cl)C(=O)O)c1cccs1 [Example 373, N-[2-chloro-4-(3-phenyl-1-propenyl)benzoyl]-3-(thiophene-2-carbonyl)amino-L-alanine] | 12.5
0.019 | O=C(NC[C@H](NC(=O)c1ccc(C(=O)[C@H]2C[C@@H]2c2ccccc2)cc1Cl)C(=O)O)c1cccs1 [Example 377] | 9.5
0.0097 | O=C(CCc1ccccc1)c1ccc(C(=O)N[C@@H](CNC(=O)c2cccs2)C(=O)O)c(Cl)c1 [Example 378] | 6.4
